# Legend:
# [1] = test system: HLA-A*24:02 transgenic mouse; test: Test 8: in vivo adjuvant activity, vaccine e (Peptide SEQ ID No. 18), IFNγ ELISPOT; details: added to vaccine e; 0.4 nmol per body, twice; FIG. 5
# Protocol: Evaluation of In Vivo Adjuvant Activity in HLA-A*24:02 Transgenic Mouse
# The in vivo adjuvant activity of the compound of Example 1 was evaluated in the following procedure. To a vaccine prepared by mixing Peptide SEQ ID No. 18 prepared in Reference example 20 with Montanide ISA 51 VG (hereinafter, referred to as “vaccine e”) was added the compound prepared in Example 1 to prepare a vaccine. The vaccine was administered to a HLA-A*24:02 transgenic mouse, and the adjuvant activity of the vaccine was evaluated by the method of testing antigen-specific CTL induction. The TYAGCLSQIF in Peptide SEQ ID No. 18 corresponds to an antigen peptide derived from an HLA-A*24:02-restricted Or7c1 protein.
# The character for inducing CTLs specific to the antigen peptide (SEQ ID No. 18) by vaccine e was evaluated by measuring whether IFNγ can be produced upon stimulation of splenocytes from the mouse with the peptide. In addition, the character for exerting in vivo adjuvant activity by the compound in Example 1 was evaluated by comparing the number of CTLs induced by vaccine e and the number of CTLs induced by the vaccine prepared by adding the compound prepared in Example 1 to vaccine e, and checking presence or absence of the increase on the number.
# Specifically, Peptide of SEQ ID No. 18 was dissolved in DMSO, and then diluted with water for injection to concentrations of 3 mg/mL. […]
# [2] = test system: HLA-A*02:01 transgenic mouse; test: Test 17: in vivo adjuvant activity, liposome formulation 2, IFNγ ELISPOT; details: added to cocktail vaccine 1 (liposome formulation 2); 0.4 nmol per body, twice; FIG. 20 and 21
# Protocol: Evaluation of In Vivo Adjuvant Activity in HLA-A*02:01 Transgenic Mouse
# The in vivo adjuvant activity of the compound of Example 1 was evaluated in the following procedure.
# To a vaccine (liposome formulation 2) comprising Compound of formula 4 prepared in Reference example 8 and Peptide SEQ ID No. 3 prepared in Reference example 3 (hereinafter, referred to as “cocktail vaccine 1”) was added the compound prepared in Example 1 to prepare a vaccine. The vaccine was administered to a HLA-A*02:01 transgenic mouse, and the adjuvant activity of the vaccine was evaluated by the method of testing antigen-specific CTL induction.
# For example, the above liposome formulation 2 was prepared as follows. 42.66 mg of sphingomyelin and 15.47 mg of cholesterol were dissolved in t-butyl alcohol, and the mixture was lyophilized. […]
# Cocktail vaccine 1 was injected to mice intradermally at the tail base area in an amount for administering 500 μg of Compound of formula 4 per body and 375 μg of Peptide SEQ ID No. 3 per body. […] Then, after removal of the supernatant from the wells, stained spots on the ELISPOT plate were counted.
smiles,measurement,setting,value
"CCCCCNc1nc(N)nc(C)c1Cc1ccc(CN(C)CCOCCOCCOCCOCCO)cc1OC [Example 1, 1-(4-{[2-amino-4-methyl-6-(pentylamino)pyrimidin-5-yl]methyl}-3-methoxyphenyl)-2-methyl-5,8,11,14-tetraoxa-2-azahexadecan-16-ol·trifluoroacetate]",CTL counts responsive to Peptide of SEQ ID No. 18 compared with adding no compound,[1],more
same,CTL counts responsive to Peptide SEQ ID No. 1 or SEQ ID No. 4 compared with adding no compound,[2],more

# — patent US12427192B2, “Water soluble adjuvant and composition containing same” (Sumitomo Pharma Co., Ltd., priority 2019, dated 2025)
